How the values were obtained:
[1] = target: T1, Recombinant human IDO1 (rhIDO1) (Homo sapiens, UniProt P14902); assay: Enzyme assay for IDO1 inhibition; assay type: biochemical; conditions: for IC50 / IDO1 inhibitory activity (in words): rhIDO1 enzyme assay; for IC50: 37 °C, 45 min
T1 construct: made in house

[2] = target: T2, Recombinant human TDO (rhTDO) (Homo sapiens, UniProt P48775); assay: Enzyme assay for TDO inhibition; assay type: biochemical; conditions: 37 °C, 45 min
T2 construct: made in house
Method: Recombinant human IDO1 and TDO were expressed and purified according to the reported procedures. The assay was performed according to the literature: A standard reaction mixture (100 µL) containing 100 mM potassium phosphate buffer (pH 6.5), 40 mM ascorbic acid (neutralized with NaOH), 200 µg/mL catalase, 20 µM methylene blue and 0.05 µM rhIDO1 or rhTDO was added to the solution containing the substrate L-tryptophan and the test sample at a determined concentration. The reaction was carried out at 37 °C for 45 min and stopped by adding 20 µL of 30% (w/v) trichloroacetic acid. After heating at 65 °C for 15 min, 100 µL of 2% (w/v) p-dimethylaminobenzaldehyde in acetic acid was added to each well. The yellow pigment derived from kynurenine was measured at 492 nm using a SYNERGY-H1 microplate reader (Biotek Instruments, Inc., Winooski, VT, USA). IC50 was analyzed using the GraphPad Prism 8.0 software (GraphPad Software, San Diego, CA, USA).

T1 sequence (P14902 whole entry): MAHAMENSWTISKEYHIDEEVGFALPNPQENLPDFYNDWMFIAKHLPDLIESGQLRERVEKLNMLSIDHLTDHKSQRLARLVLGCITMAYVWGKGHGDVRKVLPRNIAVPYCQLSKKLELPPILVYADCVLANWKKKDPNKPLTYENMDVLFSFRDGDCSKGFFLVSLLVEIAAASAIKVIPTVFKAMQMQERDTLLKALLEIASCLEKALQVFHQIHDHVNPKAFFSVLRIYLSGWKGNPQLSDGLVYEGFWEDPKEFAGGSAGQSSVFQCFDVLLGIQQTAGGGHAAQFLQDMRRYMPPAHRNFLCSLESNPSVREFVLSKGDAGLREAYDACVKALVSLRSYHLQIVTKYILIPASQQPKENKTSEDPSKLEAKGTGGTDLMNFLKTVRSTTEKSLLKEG
T2 sequence (P48775 whole entry): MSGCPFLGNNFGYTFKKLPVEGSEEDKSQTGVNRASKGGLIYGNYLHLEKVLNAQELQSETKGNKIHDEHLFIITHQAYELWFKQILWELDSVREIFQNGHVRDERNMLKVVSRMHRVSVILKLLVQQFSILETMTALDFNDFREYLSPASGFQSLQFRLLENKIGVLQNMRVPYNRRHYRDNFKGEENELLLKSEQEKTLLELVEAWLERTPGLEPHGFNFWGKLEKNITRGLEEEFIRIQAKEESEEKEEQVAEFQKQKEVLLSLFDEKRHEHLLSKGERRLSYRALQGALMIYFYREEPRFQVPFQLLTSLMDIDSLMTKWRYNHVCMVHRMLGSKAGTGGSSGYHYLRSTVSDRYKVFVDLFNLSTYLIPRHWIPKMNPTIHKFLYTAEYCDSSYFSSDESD

Row | Compound | IC50 [1] [µM] | IC50 [2] [µM] | IDO1 inhibitory activity (in words) [1] | fold more potent than compound BMS-E30 (IDO1) ([1]; ratio of IDO1 enzyme IC50 values) [fold]
1 | CCOC(=O)CC(c1ccc(N2CC(C)CC(C)C2)c(NC(=O)Nc2ccccc2)c1)C(F)(F)F (stereo not shown) [g1, 3-[4-(3,5-dimethylpiperidin-1-yl)-3-(3-phenylureido)-phenyl]-4,4,4-trifluorobutyric Acid Ethyl Ester] | > 100 | > 100 | – | –
2 | CCOC(=O)CC(c1ccc(N2CC(C)CC(C)C2)c(NC(=O)Nc2ccc(C)cc2)c1)C(F)(F)F (stereo not shown) [g2, 3-[4-(3,5-dimethylpiperidin-1-yl)-3-(3-p-tolylureido)phenyl]-4,4,4-trifluorobutyric Acid Ethyl Ester] | > 100 | > 100 | – | –
3 | CCOC(=O)CC(c1ccc(N2CC(C)CC(C)C2)c(NC(=O)Nc2ccc(Cl)cc2)c1)C(F)(F)F (stereo not shown) [g3, 3-[3-[3-(4-chlorophenyl)-ureido]-4-(3,5-dimethylpiperidin-1-yl)-phenyl]-4,4,4-trifluorobutyric Acid Ethyl Ester] | > 100 | > 100 | – | –
4 | Cc1ccc(NC(=O)Nc2cc(C(CC(=O)O)C(F)(F)F)ccc2N2CC(C)CC(C)C2)cc1 (stereo not shown) [i2, 3-[4-(3,5-dimethylpiperidin-1-yl)-3-(3-p-tolylureido)phenyl]-4,4,4-trifluorobutyric Acid] | 8.61 | > 100 | more potent IDO1 inhibitory activity than the unsubstituted i1 | –
5 | CC1CC(C)CN(c2ccc(C(CC(=O)O)C(F)(F)F)cc2NC(=O)Nc2ccc(Cl)cc2)C1 (stereo not shown) [i3, 3-[3-[3-(4-chlorophenyl)ureido]-4-(3,5-dimethylpiperidin-1-yl)-phenyl]-4,4,4-trifluorobutyric Acid] | 5.69 | > 100 | more potent IDO1 inhibitory activity than the unsubstituted i1 | –
6 | CC1CC(C)CN(c2ccc(C(CC(=O)O)C(F)(F)F)cc2NC(=O)NC2CCCCC2)C1 (stereo not shown) [i4, 3-[3-(3-cyclohexylureido)-4-(3,5-dimethylpiperidin-1-yl)phenyl]-4,4,4-trifluorobutyric Acid] | > 100 | > 100 | loss of inhibition | –
7 | CCCCNC(=O)Nc1cc(C(CC(=O)O)C(F)(F)F)ccc1N1CC(C)CC(C)C1 (stereo not shown) [i5, 3-[3-(3-butylureido)-4-(3,5-dimethylpiperidin-1-yl)-phenyl]-4,4,4-trifluorobutyric Acid] | > 100 | > 100 | loss of inhibition | –
8 | Cc1ccccc1NC(=O)Nc1cc(C(CC(=O)O)C(F)(F)F)ccc1N1CC(C)CC(C)C1 (stereo not shown) [i6, 3-[4-(3,5-dimethylpiperidin-1-yl)-3-(3-o-tolylureido)phenyl]-4,4,4-trifluorobutyric Acid] | > 100 | > 100 | lost all IDO1 inhibitory activity | –
9 | Cc1cccc(NC(=O)Nc2cc(C(CC(=O)O)C(F)(F)F)ccc2N2CC(C)CC(C)C2)c1 (stereo not shown) [i7, 3-[4-(3,5-dimethylpiperidin-1-yl)-3-(3-m-tolylureido)phenyl]-4,4,4-trifluorobutyric Acid] | > 100 | > 100 | lost all IDO1 inhibitory activity | –
10 | CC1CC(C)CN(c2ccc(C(CC(=O)O)C(F)(F)F)cc2NC(=O)Nc2ccccc2Cl)C1 (stereo not shown) [i8, 3-[3-[3-(2-chlorophenyl)ureido]-4-(3,5-dimethylpiperidin-1-yl)-phenyl]-4,4,4-trifluorobutyric Acid] | > 100 | > 100 | lost all IDO1 inhibitory activity | –
11 | CC1CC(C)CN(c2ccc(C(CC(=O)O)C(F)(F)F)cc2NC(=O)Nc2cccc(Cl)c2)C1 (stereo not shown) [i9, 3-[3-[3-(3-chlorophenyl)ureido]-4-(3,5-dimethylpiperidin-1-yl)-phenyl]-4,4,4-trifluorobutyric Acid] | > 100 | > 100 | lost all IDO1 inhibitory activity | –
12 | CC1CC(C)CN(c2ccc(C(CC(=O)O)C(F)(F)F)cc2NC(=O)Nc2ccccc2C#N)C1 (stereo not shown) [i10, 3-[3-[3-(2-cyanophenyl)ureido]-4-(3,5-dimethylpiperidin-1-yl)-phenyl]-4,4,4-trifluorobutyric Acid] | > 100 | > 100 | lost all IDO1 inhibitory activity | –
13 | CC1CC(C)CN(c2ccc(C(CC(=O)O)C(F)(F)F)cc2NC(=O)Nc2cccc(C#N)c2)C1 (stereo not shown) [i11, 3-[3-[3-(3-cyanophenyl)ureido]-4-(3,5-dimethylpiperidin-1-yl)-phenyl]-4,4,4-trifluorobutyric Acid] | > 100 | > 100 | lost all IDO1 inhibitory activity | –
14 | COc1ccccc1NC(=O)Nc1cc(C(CC(=O)O)C(F)(F)F)ccc1N1CC(C)CC(C)C1 (stereo not shown) [i13, 3-{4-(3,5-dimethylpiperidin-1-yl)-3-[3-(2-methoxyphenyl)ureido]-phenyl}-4,4,4-trifluorobutyric Acid] | > 100 | > 100 | lost all IDO1 inhibitory activity | –
15 | COc1cccc(NC(=O)Nc2cc(C(CC(=O)O)C(F)(F)F)ccc2N2CC(C)CC(C)C2)c1 (stereo not shown) [i14, 3-{4-(3,5-dimethylpiperidin-1-yl)-3-[3-(3-methoxyphenyl)ureido]-phenyl}-4,4,4-trifluorobutyric Acid] | > 100 | > 100 | lost all IDO1 inhibitory activity | –
16 | COc1ccc(NC(=O)Nc2cc(C(CC(=O)O)C(F)(F)F)ccc2N2CC(C)CC(C)C2)cc1 (stereo not shown) [i15, 3-{4-(3,5-dimethylpiperidin-1-yl)-3-[3-(4-methoxyphenyl)ureido]-phenyl}-4,4,4-trifluorobutyric Acid] | 1.62 | > 100 | more potent IDO1 inhibitory activity than the unsubstituted i1 | –
17 | CC1CC(C)CN(c2ccc(C(CC(=O)O)C(F)(F)F)cc2NC(=O)Nc2ccc(F)cc2F)C1 (stereo not shown) [i16, 3-[3-[3-(2,4-difluorophenyl)ureido]-4-(3,5-dimethylpiperidin-1-yl)-phenyl]-4,4,4-trifluorobutyric Acid] | > 100 | > 100 | no inhibitory activities | –
18 | CC1CC(C)CN(c2ccc(C(CC(=O)O)C(F)(F)F)cc2NC(=O)Nc2ccc(Cl)cc2Cl)C1 (stereo not shown) [i17, 3-[3-[3-(2,4-dichlorophenyl)ureido]-4-(3,5-dimethylpiperidin-1-yl)-phenyl]-4,4,4-trifluorobutyric Acid] | > 100 | > 100 | no inhibitory activities | –
19 | CC1CC(C)CN(c2ccc(C(CC(=O)O)C(F)(F)F)cc2NC(=O)Nc2ccc(F)cc2)C1 (stereo not shown) [i18, 3-{4-(3,5-dimethylpiperidin-1-yl)-3-[3-(4-fluorophenyl)ureido]-phenyl}-4,4,4-trifluorobutyric Acid] | 5.48 | > 100 | – | –
20 | CC1CC(C)CN(c2ccc(C(CC(=O)O)C(F)(F)F)cc2NC(=O)Nc2ccc(Br)cc2)C1 (stereo not shown) [i19, 3-[3-[3-(4-bromophenyl)ureido]-4-(3,5-dimethylpiperidin-1-yl)-phenyl]-4,4,4-trifluorobutyric Acid] | 4.08 | > 100 | – | –
21 | CCc1ccc(NC(=O)Nc2cc(C(CC(=O)O)C(F)(F)F)ccc2N2CC(C)CC(C)C2)cc1 (stereo not shown) [i20, 3-{4-(3,5-dimethylpiperidin-1-yl)-3-[3-(4-ethylphenyl)ureido]phenyl}-4,4,4-trifluorobutyric Acid] | 9.98 | > 100 | – | –
22 | CC1CC(C)CN(c2ccc(C(CC(=O)O)C(F)(F)F)cc2NC(=O)Nc2ccc(C(C)C)cc2)C1 (stereo not shown) [i21, 3-{4-(3,5-dimethylpiperidin-1-yl)-3-[3-(4-isopropylphenyl)ureido]-phenyl}-4,4,4-trifluorobutyric Acid] | > 100 | > 100 | loss of activity | –
23 | CC1CC(C)CN(c2ccc(C(CC(=O)O)C(F)(F)F)cc2NC(=O)Nc2ccc(OC(F)(F)F)cc2)C1 (stereo not shown) [i22, 3-{4-(3,5-dimethylpiperidin-1-yl)-3-[3-(4-trifluoromethoxyphenyl)-ureido]phenyl}-4,4,4-trifluorobutyric Acid] | 1.32 | > 100 | – | –
24 | CC1CC(C)CN(c2ccc(C(CC(=O)O)C(F)(F)F)cc2NC(=O)Nc2ccc(C(F)(F)F)cc2)C1 (stereo not shown) [i23, 3-{4-(3,5-dimethylpiperidin-1-yl)-3-[3-(4-trifluoromethylphenyl)-ureido]phenyl}-4,4,4-trifluorobutyric Acid] | 0.415 | > 100 | – | –
25 | CC1CC(C)CN(c2ccc(C(CC(=O)O)C(F)(F)F)cc2NC(=O)Nc2ccc([N+](=O)[O-])cc2)C1 (stereo not shown) [i24, 3-{4-(3,5-dimethylpiperidin-1-yl)-3-[3-(4-nitrophenyl)ureido]phenyl}-4,4,4-trifluorobutyric Acid] | 0.157 | > 100 | – | 55
26 | CC1CC(C)CN(c2ccc(C(CC(=O)O)C(F)(F)F)cc2NC(=O)Cc2ccc(C#N)cc2)C1 (stereo not shown) [j1, 3-[3-[2-(4-cyanophenyl)acetylamino]-4-(3,5-dimethylpiperidin-1-yl)-phenyl]-4,4,4-trifluorobutyric Acid] | > 100 | > 100 | no inhibitory activity | –
27 | CC1CC(C)CN(c2ccc(C(CC(=O)O)C(F)(F)F)cc2NC(=O)Cc2ccc(C(F)(F)F)cc2)C1 (stereo not shown) [j2, 3-{4-(3,5-dimethylpiperidin-1-yl)-3-[2-(4-trifluoromethylphenyl)-acetylamino]phenyl}-4,4,4-trifluorobutyric Acid] | > 100 | > 100 | no inhibitory activity | –
